One series has as its target Coagulation factor IX (Homo sapiens, UniProt P00740). Description: Inhibition of human factor 9a using CH3SO2-D-CHG-Gly-Arg-AFC.AcOH as substrate by fluorescence assay.
The target in another series is Coagulation factor X (Homo sapiens, UniProt P00742). Description: Inhibition of human factor 10a using n-Acetyl-KPR-AFC as substrate by fluorescence assay.
Series [1] in a line: Inhibition of CYP (unknown origin). The following applies: human. It is filed as ADME.
Series [2] concerns the target Voltage-gated inwardly rectifying potassium channel KCNH2 (Homo sapiens, UniProt Q12809). Description: Inhibition of human ERG.

Structures are written as SMILES.

The Ki is the equilibrium dissociation constant of an inhibitor or competing ligand from its target.

Chain of Coagulation factor X (P00742 41-179 limits assumed): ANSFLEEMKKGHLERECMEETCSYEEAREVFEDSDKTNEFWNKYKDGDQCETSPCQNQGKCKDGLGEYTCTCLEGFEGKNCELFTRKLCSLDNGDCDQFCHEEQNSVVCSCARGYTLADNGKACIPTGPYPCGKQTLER
Chain of Coagulation factor X (P00742 235-488 limits assumed): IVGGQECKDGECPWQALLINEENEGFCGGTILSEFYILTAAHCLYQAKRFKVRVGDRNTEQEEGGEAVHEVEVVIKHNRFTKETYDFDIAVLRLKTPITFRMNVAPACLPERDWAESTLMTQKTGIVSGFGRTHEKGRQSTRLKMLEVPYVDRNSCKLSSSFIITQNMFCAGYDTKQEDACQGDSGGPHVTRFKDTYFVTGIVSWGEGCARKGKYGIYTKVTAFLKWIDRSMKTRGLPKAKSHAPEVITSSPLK
Chain of Coagulation factor IX (P00740 47-191 limits assumed): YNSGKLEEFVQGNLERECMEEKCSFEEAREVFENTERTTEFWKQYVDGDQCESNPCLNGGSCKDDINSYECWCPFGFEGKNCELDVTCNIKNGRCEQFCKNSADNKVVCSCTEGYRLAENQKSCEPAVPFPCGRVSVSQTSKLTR
Chain of Coagulation factor IX (P00740 227-461 limits assumed): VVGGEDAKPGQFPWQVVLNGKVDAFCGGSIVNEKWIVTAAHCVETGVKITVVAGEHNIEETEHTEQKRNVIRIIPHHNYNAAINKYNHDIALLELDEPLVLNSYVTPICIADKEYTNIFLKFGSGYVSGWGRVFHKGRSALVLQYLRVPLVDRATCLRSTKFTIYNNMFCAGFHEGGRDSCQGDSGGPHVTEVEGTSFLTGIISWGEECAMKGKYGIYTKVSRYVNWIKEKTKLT
Chain of Voltage-gated inwardly rectifying potassium channel KCNH2 (Q12809 whole entry): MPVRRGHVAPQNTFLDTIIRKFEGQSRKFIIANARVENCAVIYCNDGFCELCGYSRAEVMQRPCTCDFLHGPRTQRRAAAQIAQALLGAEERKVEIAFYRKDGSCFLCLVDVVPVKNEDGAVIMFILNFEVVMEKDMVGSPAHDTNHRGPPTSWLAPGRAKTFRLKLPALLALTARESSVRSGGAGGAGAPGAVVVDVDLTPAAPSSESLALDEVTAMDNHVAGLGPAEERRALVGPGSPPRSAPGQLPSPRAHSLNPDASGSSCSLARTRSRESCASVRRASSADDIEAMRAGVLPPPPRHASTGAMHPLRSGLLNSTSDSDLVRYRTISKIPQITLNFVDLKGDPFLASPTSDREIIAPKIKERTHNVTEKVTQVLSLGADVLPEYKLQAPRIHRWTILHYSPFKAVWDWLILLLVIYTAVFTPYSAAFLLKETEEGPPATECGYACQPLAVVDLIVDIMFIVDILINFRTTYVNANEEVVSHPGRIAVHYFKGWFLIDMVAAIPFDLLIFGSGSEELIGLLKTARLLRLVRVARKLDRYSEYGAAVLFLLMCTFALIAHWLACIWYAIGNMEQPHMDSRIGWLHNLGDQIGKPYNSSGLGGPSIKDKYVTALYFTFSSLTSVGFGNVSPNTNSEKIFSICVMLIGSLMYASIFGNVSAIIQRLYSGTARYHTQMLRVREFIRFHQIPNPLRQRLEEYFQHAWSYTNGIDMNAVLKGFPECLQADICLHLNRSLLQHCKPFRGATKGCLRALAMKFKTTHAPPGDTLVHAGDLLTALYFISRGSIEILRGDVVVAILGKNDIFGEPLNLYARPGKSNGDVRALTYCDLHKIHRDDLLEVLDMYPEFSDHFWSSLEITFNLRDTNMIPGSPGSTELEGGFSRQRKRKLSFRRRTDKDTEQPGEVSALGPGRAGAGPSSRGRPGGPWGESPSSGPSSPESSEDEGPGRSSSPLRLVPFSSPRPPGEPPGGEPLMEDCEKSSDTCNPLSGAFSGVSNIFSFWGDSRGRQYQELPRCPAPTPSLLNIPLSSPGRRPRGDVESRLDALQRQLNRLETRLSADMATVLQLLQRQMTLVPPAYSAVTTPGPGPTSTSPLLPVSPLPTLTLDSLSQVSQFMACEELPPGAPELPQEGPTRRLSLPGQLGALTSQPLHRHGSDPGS

Take `Cc1ccc(O)c2c3c(nn12)CCC(C)(NC(=O)c1ccc(-n2cncn2)cc1Cl)C3` (configuration not stated): the Ki on Coagulation factor IX worked out at 0.156 µM. This counts as sub-micromolar.

On Coagulation factor IX, `Cc1ccc(O)c2nc(CCNC(=O)c3ccc(-n4cnnc4)cc3Cl)[nH]c12` gave a Ki of 131 µM.

`Cc1cc2nc(CCNC(=O)c3ccc(-n4cnnc4)cc3)[nH]c2cc1C`: on Coagulation factor X, the Ki is > 62.5 µM.

With `Cc1cc2nc(CCNC(=O)c3ccccc3-n3cnnc3)[nH]c2cc1C`, the Ki at Coagulation factor IX was > 145 µM.

Take `Cc1cc2nc(CCNC(=O)c3ccc(C#N)cc3F)[nH]c2cc1C`: the Ki on Coagulation factor IX was > 145 µM.

As to `Cc1cc2nc(CCNC(=O)c3ccccc3Cl)[nH]c2cc1C`, the Ki at Coagulation factor IX was > 145 µM.

`Cc1cc2nc(CCNC(=O)c3ccc(-n4cncn4)cc3Cl)[nH]c2cc1C` returned a Ki on Coagulation factor IX of 2.12 µM.

`Cc1cc2nc(CCNC(=O)c3ccc(-n4ccnn4)cc3Cl)[nH]c2cc1C`: the Ki at Coagulation factor IX amounted to 130 µM.

Take `Cc1cc2nc(CCNC(=O)c3ccc(-n4nccn4)cc3Cl)[nH]c2cc1C`: the Ki at Coagulation factor IX is > 145 µM.

For the compound `Cc1cc2nc(CCNC(=O)c3ccc(-n4ccnc4)cc3Cl)[nH]c2cc1C`, at Coagulation factor IX, the Ki worked out at 5.58 µM. This counts as single-digit micromolar.

Compound `Cc1ccc(O)c2c3c(nn12)CCC(C)(NC(=O)c1ccc(-n2ccnn2)cc1)C3` (configuration not stated) registered a Ki on Coagulation factor IX of 0.462 µM.

On to `Cc1ccc(O)c2c3c(nn12)CCC(C)(NC(=O)c1ccc(C#N)cc1F)C3` (configuration not stated), for which the Ki on Coagulation factor X is > 62.5 µM; on Coagulation factor IX, 2 µM.

The compound `Cc1ccc(O)c2c3c(nn12)CCC(C)(NC(=O)c1ccc(F)cc1)C3` (configuration not stated) showed a Ki at Coagulation factor IX of 18.3 µM.

In turn, `Cc1ccc(O)c2c3c(nn12)CCC(C)(NC(=O)c1ccc(C#N)cc1)C3` (configuration not stated) came in with a Ki on Coagulation factor IX of 20.6 µM.

On to `Cc1ccc(O)c2c3c(nn12)CCC(C)(NC(=O)c1ccccc1Cl)C3` (configuration not stated), for which the Ki at Coagulation factor IX was found to be 6.34 µM.

On to `Cc1ccc(O)c2c3c(nn12)CCC(C)(NC(=O)c1ccc(-n2cnnc2)cc1Cl)C3` (configuration not stated), for which the Ki at Coagulation factor X was found to be 12 µM; on Coagulation factor IX, 0.09 µM. Besides, the “inhibition (INH)” value in series [1] and in series [2] was “Not Active” throughout.

Consider `Cc1ccc(O)c2c3c(nn12)CCC(C)(NC(=O)c1ccc(-n2ccnn2)cc1Cl)C3` (configuration not stated), for which, on Coagulation factor IX, the Ki is 0.937 µM. In other words, the sub-micromolar range.

For `Cc1ccc(O)c2c3c(nn12)CCC(C)(NC(=O)c1ccc(-n2nccn2)cc1Cl)C3` (configuration not stated), on Coagulation factor IX, the inhibition constant (Ki) was found to be 30.3 µM.

With `Cc1ccc(O)c2c3c(nn12)CCC(C)(NC(=O)c1ccc(-n2ccnc2)cc1Cl)C3` (configuration not stated), at Coagulation factor IX, the Ki is 0.595 µM.

Compound `Cc1ccc(O)c2c3c(nn12)CCC(C)(NC(=O)c1ccc(-n2cccn2)cc1Cl)C3` (configuration not stated) had a Ki at Coagulation factor IX of 4.4 µM.

The compound `Cc1cc2nc(C[C@H](C)NC(=O)c3ccc(-n4cnnc4)cc3Cl)[nH]c2cc1C` yielded a Ki on Coagulation factor IX of 55.4 µM.

Take `Cc1cc2nc(C[C@@H](C)NC(=O)c3ccc(-n4cnnc4)cc3Cl)[nH]c2cc1C`: at Coagulation factor IX, the Ki worked out at 35 µM. Compared with the last compound, the Ki is about 1.6-fold lower.

In the case of `Cc1cc2nc([C@@H](CNC(=O)c3ccc(-n4cnnc4)cc3Cl)c3ccccc3)[nH]c2cc1C`, the Ki at Coagulation factor X was found to be 0.39 µM; at Coagulation factor IX it was 0.016 µM. The “inhibition (INH)” value in series [1] and in series [2] was “Not Active” throughout.

`Cc1cc2nc([C@H](CNC(=O)c3ccc(-n4cnnc4)cc3Cl)c3ccccc3)[nH]c2cc1C` had a Ki on Coagulation factor IX of 0.52 µM.

For the compound `Cc1cc2nc(C(C)CNC(=O)c3ccc(-n4cnnc4)cc3Cl)[nH]c2cc1C` (racemic), on Coagulation factor IX, the affinity corresponds to a Ki of 0.34 µM.

These data come from ChEMBL document CHEMBL3421601, “Rapid development of two factor IXa inhibitors from hit to lead” (Bioorg Med Chem Lett, 2015).
